Data on eight molecules can be found in patent publication US10758620B2, “Potentiated antimicrobial agents” (SEPTEOS, priority 2014, dated 2020).

One data set has as its system Staphylococcus. In words: MIC measurement in agar medium (dilution test), Staph. The class given is cell-based. The following applies: Staphylococcus, read-out: MIC of the amox alone; staphylococci. An excerpt: Inhibitory minimum concentration measurement tests are made in a solid agar medium according to international standards in force (CLSI M7-A9 Jan 12 standards): dispersion of the compounds to be tested in a Mueller Hinton gelose. An adaptation relating to the hydrophobicity of compounds and compositions is however necessary to disperse them in the medium: dilution of the compounds in a solvent. The compounds and compositions incorporated in the agar medium can be diluted beforehand in one or more solvents (Tween® 80 diluted with water, Tween® 80 diluted with […], DMSO diluted with water). The strains are deposited onto the agar surface with a steers apparatus. In the examples, different dissolution methods for products are tested in parallel to circumvent the problems of water/solvent distribution coefficient of the molecules (antimicrobial and potentiator) whereas the bacteria grow only in the aqueous phase. The technical requirement will not intervene in in vivo tests. The same dilution methods can be implemented in a liquid medium (microplates and tubes). The same methodology is implemented with fungi. […] MIC measurement: the minimum inhibitory concentration measurement tests are made in an agar solid medium according to international standards in force (CLSI standards), according to the previously defined protocol. […] The booster contribution as compared with the MIC of the antibiotic alone is expressed in a (MIC ATB)/(MIC ATB+booster) ratio. Thereby, gains are defined: […]

The conditions of data set [1]: orally, cats; cited from earlier work.
For data set [2] the following is noted: orally, rats; cited from earlier work.
The subject of a further data set is candidas. Put plainly: MIC measurement (dilution test) on yeast strains. The class given is cell-based, Candida. The settings on record: Candida; read-out: MIC of sertaconazole alone. An excerpt:
Inhibitory minimum concentration measurement tests are made in a solid agar medium according to international standards in force (CLSI M7-A9 Jan 12 standards): dispersion of the compounds to be tested in a Mueller Hinton gelose. An adaptation relating to the hydrophobicity of compounds and compositions is however necessary to disperse them in the medium: dilution of the compounds in a solvent. The compounds and compositions incorporated in the agar medium can be diluted beforehand in one or more solvents (Tween® 80 diluted with water, Tween® 80 diluted with […], DMSO diluted with water). The strains are deposited onto the agar surface with a steers apparatus. In the examples, different dissolution methods for products are tested in parallel to circumvent the problems of water/solvent distribution coefficient of the molecules (antimicrobial and potentiator) whereas the bacteria grow only in the aqueous phase. The technical requirement will not intervene in in vivo tests. The same dilution methods can be implemented in a liquid medium (microplates and tubes). The same methodology is implemented with fungi. […] MIC measurement: the minimum inhibitory concentration measurement tests are made in an agar solid medium according to international standards in force (CLSI standards), according to the previously defined protocol. […] The booster contribution as compared with the MIC of the antibiotic alone is expressed in a (MIC ATB)/(MIC ATB+booster) ratio. Thereby, gains are defined: […] The yeast strains tested (n=33) belong to the […] albicans, Candida tropicalis, Candida krusei, Candida parapsilosis, Candida glabrata species.

Data set [3] deals with Strain 09003, methicillin resistant S. aureus (MRSA). In words: Resistance test (resistant mutants), Strain 09003. The data set is classed as cell-based. The settings on record: Strain 09003, DMSO, 4 times the MIC, 48 h incubation, combinations 64/100. Here is the method: (§1) After 48 h incubation, the presence or absence of colonies likely to be resistant mutants is observed.
(§2) ED control or DMSO=only distilled water or DMSO is added
(§3) Ciprofloxacine DMSO: addition of Ciprofloxacine in DMSO

The test system of data set [4] is Strain 10168, methicillin resistant S. aureus (MRSA). Put plainly: Resistance test (resistant mutants), Strain 10168. The following applies: Strain 10168, DMSO, 4 times the MIC, 48 h incubation, combinations 64/100. The data set is classed as cell-based. The procedure:
as §1, §2, §3

The next data set concerns MSSA 8237. In words: Etest, staphylococci MSSA 8237. The settings on record: MSSA 8237. The class given is cell-based. An excerpt:
(§4) The corresponding tests are made based on the usual MIC test: the Etest® (Biomerieux) strip is deposited onto the surface of a seeded agar medium in which the booster has been incorporated. This test enables solvent effect risks, that is a possible interaction with the solvent used in vitro, to be minimised.
(§5) The control corresponds to the test made without cineol. A control is made in each solvent tested: distilled water, Tween/water and DMSO.
(§6) ED control=antibiotic alone in distilled water
(§7) DMSO control=antibiotic alone in DMSO
(§8) TE control=antibiotic alone in Tween® 80

Another data set has as its system MRSA 10178. Put plainly: Etest, staphylococci MRSA 10178. The data set is classed as cell-based.
Source text: as §4, §5, §6, §7, §8

A further data set deals with Pseudomonas Strain 08131. In words: Etest, Pseudomonas Strain 08131. The data set is classed as cell-based. The settings on record: Pseudomonas, STRAIN08131, Strain 08131, read-out: MIC.
Source text: as §4, §5, §6, §7, §8

In a further data set the test system is Pseudomonas Strain 08132. Put plainly: Etest, Pseudomonas Strain 08132. The data set is classed as cell-based.
Source text: as §4, §5, §6, §7, §8

For another data set, the system named is E. Coli Strain 08138. In words: Etest, E. Coli Strain 08138. The following applies: Escherichia coli, Strain 08138. The data set is classed as cell-based.
Source text: as §4, §5, §6, §7, §8

A further data set concerns E. Coli Strain 8150. In words: Etest, E. Coli Strain 8150. The following applies: Escherichia coli, Strain 8150. The data set is classed as cell-based.
Source text: as §4, §5, §6, §7, §8

Where [5] appears, read: DMSO control = antibiotic alone in DMSO.
Setting [6] is: ED control = antibiotic alone in distilled water.
The mark [7] stands for this setting: Tween water control = antibiotic alone.
The mark [8] stands for this setting: Staphylococcus aureus, MSSA, DMSO control = antibiotic alone in DMSO, read-out: MIC.
[9] abbreviates: Staphylococcus aureus, MSSA, ED control = antibiotic alone in distilled water, read-out: MIC.
Where [10] appears, read: Staphylococcus aureus, MSSA, Tween water control = antibiotic alone, read-out: MIC.

For orientation: MIC means the lowest concentration found to suppress growth.

In brackets after ≈: the same amount, converted by molar mass. Read-outs that look alike come from different tables or passages of the source.

With `CC1(C)S[C@@H]2[C@H](NC(=O)[C@H](N)c3ccc(O)cc3)C(=O)N2[C@H]1C(=O)O` [amox, amoxicillin, reference compound], the MIC with Staphylococcus was 0.25 to 32 µg/mL.
In the case of `Cc1ccc(C(C)C)cc1O` [carvacrol], the lowest lethal dose in data set [1] and in data set [2] was 100 mg/kg in each case.
For `Clc1ccc(C(Cn2ccnc2)OCc2csc3c(Cl)cccc23)c(Cl)c1` (centres unmarked) [sertaconazole, reference compound], the MIC in the data set on candidas lay within 0.06 to 16 µg/mL.
For the molecule `O=C(O)c1cn(C2CC2)c2cc(N3CCNCC3)c(F)cc2c1=O` [Ciprofloxacine, ciprofloxacine, reference compound], the “colonies likely to be resistant mutants” value in data set [3] is reported as “numerous”; in [3] (listed as ciprofloxacine), “many mutants”; in data set [4], “invaded”; in [4] (listed as ciprofloxacine) it was “many mutants”.
As for `CC1(C)S[C@@H]2[C@H](NC(=O)Cc3ccccc3)C(=O)N2[C@H]1C(=O)O` [Penicillin G, reference compound], the MIC worked out at 1.5 µg/mL (≈ 4.49 µM) in the data set on MSSA 8237 (setting [5]), 1 µg/mL (≈ 2.99 µM) with MSSA 8237 (setting [6]) and 0.5 µg/mL (≈ 1.5 µM) in the data set on MSSA 8237 (setting [7]).
Turning to `CO[C@@]1(NC(=O)Cc2cccs2)C(=O)N2C(C(=O)O)=C(COC(N)=O)CS[C@@H]21` [Cefoxitine, reference compound], the MIC in the data set with MRSA 10178 (Staphylococcus aureus, MRSA, MRSA 10178, DMSO control = antibiotic alone in DMSO, read-out: MIC) is 6 µg/mL (≈ 14 µM); in the data set on MRSA 10178 (Staphylococcus aureus, MRSA, MRSA 10178, ED control = antibiotic alone in distilled water, read-out: MIC) it was 6 µg/mL (≈ 14 µM); in the data set with MRSA 10178 (Staphylococcus aureus, MRSA, MRSA 10178, Tween water control = antibiotic alone, read-out: MIC), 4 µg/mL (≈ 9.36 µM); in the data set on MSSA 8237 (setting [8]) it was 6 µg/mL (≈ 14 µM); with MSSA 8237 (setting [9]), 6 µg/mL (≈ 14 µM); with MSSA 8237 (setting [10]) it was 6 µg/mL (≈ 14 µM).
With `C[C@@H](O)[C@H]1C(=O)N2C(C(=O)O)=C(S[C@@H]3CN[C@H](C(=O)N(C)C)C3)[C@H](C)[C@H]12` [Meropenem, reference compound], the MIC in the data set with Pseudomonas Strain 08131 (setting [5]) came to 2 µg/mL (≈ 5.22 µM); with Pseudomonas Strain 08131 (setting [6]), 1.5 µg/mL (≈ 3.91 µM); in the data set on Pseudomonas Strain 08131 (setting [7]), 2 µg/mL (≈ 5.22 µM); with Pseudomonas Strain 08132 (setting [5]), 12 µg/mL (≈ 31.3 µM); in the data set on Pseudomonas Strain 08132 (Pseudomonas, STRAIN08132, ED control = antibiotic alone in distilled water, read-out: MIC) it was 12 µg/mL (≈ 31.3 µM); in the data set on Pseudomonas Strain 08132 (setting [7]), 12 µg/mL (≈ 31.3 µM). The MIC turned out to be 0.25 µg/mL (≈ 0.652 µM) in the data set on MSSA 8237 (setting [8]), 0.19 µg/mL (≈ 0.495 µM) in the data set with MSSA 8237 (setting [9]) and 0.25 µg/mL (≈ 0.652 µM) in the data set with MSSA 8237 (setting [10]).
Consider `CN(C)c1cc(NC(=O)CNC(C)(C)C)c(O)c2c1C[C@H]1C[C@H]3[C@H](N(C)C)C(O)=C(C(N)=O)C(=O)[C@@]3(O)C(O)=C1C2=O` [Tigecycline, reference compound], for which the MIC with E. Coli Strain 08138 (setting [5]) came to 0.38 µg/mL (≈ 0.649 µM); in the data set with E. Coli Strain 08138 (setting [6]), 0.38 µg/mL (≈ 0.649 µM); in the data set with E. Coli Strain 08138 (setting [7]), 0.38 µg/mL (≈ 0.649 µM); with E. Coli Strain 8150 (setting [5]), 0.19 µg/mL (≈ 0.324 µM); with E. Coli Strain 8150 (setting [6]) it was 0.125 µg/mL (≈ 0.213 µM); against E. Coli Strain 8150 (setting [7]), 0.125 µg/mL (≈ 0.213 µM). Besides, the MIC worked out at 0.125 µg/mL (≈ 0.213 µM) in the data set with MRSA 10178 (MRSA 10178, ED control = antibiotic alone in distilled water); 0.125 µg/mL (≈ 0.213 µM) in the data set on MRSA 10178 (MRSA 10178, Tween water control = antibiotic alone); 0.125 µg/mL (≈ 0.213 µM) against MRSA 10178 (Staphylococcus aureus, MRSA).
